Activity calls are given as the source filed them. The rule behind the calls is not given here.
Tests used:
[1] = CNS toxicity in naive ICR mouse assessed as spontaneous locomotor activity by measuring animal's movement speed in arena at 50 mg/kg, ip and measured for 30 mins by LABORAS automated behavioral analysis; assay type: organism-based; conditions: in vivo, 0.5 h
[2] = CNS toxicity in naive ICR mouse assessed as spontaneous locomotor activity by measuring anaimal's movement speed in arena at 50 mg/kg, ip and measured for 2 hrs by LABORAS automated behavioral analysis; assay type: organism-based; conditions: in vivo
RAW264.7 [3] = assay: Anti-inflammartory activity against LPS-activated mouse RAW264.7 cells assessed as reduction in TNF-alpha levels pretreated with compound for 1 hr followed by incubation with LPS for 12 hrs by ELISA; assay type: functional, cell-based; conditions: dose 12.5-50 µM, time 13.0 hrs, DDE = dose-dependent effect
Mus musculus [4] = assay: (§1) Anti-inflammatory activity against LPS-induced inflammatory pain-like behaviour ICR mouse model assessed as improvement in locomotor activity by measuring increase in distance travelled in LABORAS arena at 50 mg/kg, ip treated with LPS for 2 hrs followed by drug administration for 1 hr and measured for 5 mins by LABORAS analysis; assay type: functional, organism-based; conditions: time 65.0 min
[5] = CNS toxicity in naive ICR mouse assessed as spontaneous locomotor activity by measuring immobility behaviour at 50 mg/kg, ip and measured for 30 mins by LABORAS automated behavioral analysis; assay type: organism-based; conditions: in vivo, 0.5 h
BV-2 [6] = assay: Anti-inflammatory activity in […] cells assessed as inhibition of LPS-induced NO production pretreated with compound for 1 hr followed by coincubation with LPS for 24 hrs by Griess reagent based analysis; assay type: functional, cell-based; conditions: Mus musculus, dose 12.5-50 µM, time 25.0 hrs, DDE = dose-dependent effect
RAW264.7 [7] = assay: Cytotoxicity against mouse RAW264.7 cells assessed as reduction in cell viability at 100 uM incubated for 24 hrs by MTT assay; assay type: toxicity, cell-based; conditions: raw264.7, 24 h
[8] = Toxicity in naive ICR mouse assessed as effect on body weight at 50 mg/kg, ip measured after 24 hrs; assay type: organism-based; conditions: in vivo
BV-2 [9] = assay: Anti-inflammartory activity against LPS-activated […] cells assessed as reduction in TNF-alpha levels pretreated with compound for 1 hr followed by co-incubation with LPS for 24 hrs by ELISA; assay type: functional, cell-based; conditions: Mus musculus, dose 12.5-50 µM, time 25.0 hrs, DDE = dose-dependent effect
[10] = Toxicity in naive ICR mouse assessed as effect on food intake at 50 mg/kg, ip measured after 24 hrs; assay type: organism-based; conditions: in vivo
Mus musculus [11] = assay: as §1, with “increased mobile behaviours” for “increase in distance travelled in LABORAS arena”; assay type: functional, organism-based; conditions: time 65.0 min
[12] = CNS toxicity in naive ICR mouse assessed as spontaneous locomotor activity by measuring distance travelled in arena at 50 mg/kg, ip and measured for 30 mins by LABORAS automated behavioral analysis; assay type: organism-based; conditions: in vivo, 0.5 h
Mus musculus [13] = assay: Anti-inflammatory activity against LPS-induced inflammatory pain-like behaviour ICR mouse model assessed as reduction in IL-6 levels in plasma at 50 mg/kg, ip treated with LPS for 2 hrs followed by drug administration for 1 hr by ELISA; assay type: functional, organism-based
RAW264.7 [14] = assay: Anti-inflammartory activity in mouse RAW264.7 cells assessed as inhibition of LPS-induced NO production pretreated with compound for 1 hr followed by incubation with LPS for 12 hrs by Griess reagent based analysis; assay type: functional, cell-based; conditions: dose 12.5-50 µM, time 13.0 hrs, DDE = dose-dependent effect
BV-2 [15] = assay: Anti-inflammartory activity against LPS-activated […] cells assessed as reduction in IL-6 levels pretreated with compound for 1 hr followed by co-incubation with LPS for 24 hrs by ELISA; assay type: functional, cell-based; conditions: Mus musculus, dose 12.5-50 µM, time 25.0 hrs, DDE = dose-dependent effect
[16] = CNS toxicity in naive ICR mouse assessed as spontaneous locomotor activity by measuring climbing behaviour at 50 mg/kg, ip and measured for 2 hrs by LABORAS automated behavioral analysis; assay type: organism-based; conditions: in vivo
[17] = Toxicity in naive ICR mouse assessed as effect on water intake at 50 mg/kg, ip measured after 24 hrs; assay type: organism-based; conditions: in vivo
Mus musculus [18] = assay: Analgesic activity against formalin-induced inflammatory pain-like behaviour ICR mouse model assessed as inhibition of hind paw licking behaviour at 12.5 to 50 mg/kg, ip administered 60 mins prior to formalin challenge and measured after 10 to 40 mins by formalin test; assay type: functional, organism-based; conditions: dose 12.5-50 mg/kg, time 70-100 min, DDE = dose-dependent effect
Mus musculus [19] = assay: as §1, with “decrease” for “increase”, “immobility behaviour” for “distance travelled in LABORAS arena”; assay type: functional, organism-based; conditions: time 65.0 min
[20] = CNS toxicity in naive ICR mouse assessed as spontaneous locomotor activity by measuring rearing behaviour at 50 mg/kg, ip and measured for 30 mins by LABORAS automated behavioral analysis; assay type: organism-based; conditions: in vivo, 0.5 h
BV-2 [21] = assay: Cytotoxicity against […] cells assessed as reduction in cell viability at 100 uM incubated for 24 hrs by MTT assay; assay type: toxicity, cell-based; conditions: mouse, bv-2, 24 h
Mus musculus [22] = assay: as §1, with “animal's movement speed” for “distance travelled”; assay type: functional, organism-based; conditions: time 65.0 min
[23] = CNS toxicity in naive ICR mouse assessed as motor coordination at 50 mg/kg, ip measured after 240 mins by rotarod test; assay type: organism-based; conditions: in vivo, 4 h
[24] = CNS toxicity in naive ICR mouse assessed as spontaneous locomotor activity at 50 mg/kg, ip and measured for 30 mins by LABORAS automated behavioral analysis; assay type: organism-based; conditions: in vivo, 0.5 h
Mus musculus [25] = assay: Analgesic activity against formalin-induced inflammatory pain-like behaviour ICR mouse model assessed as inhibition of hind paw licking behaviour at 50 mg/kg, ip administered 60 mins prior to formalin challenge and measured after 10 to 40 mins by formalin test; assay type: functional; conditions: time 70-100 min
[26] = CNS toxicity in naive ICR mouse assessed as spontaneous locomotor activity by measuring rearing behaviour at 50 mg/kg, ip and measured for 2 hrs by LABORAS automated behavioral analysis; assay type: organism-based; conditions: in vivo
[27] = CNS toxicity in naive ICR mouse assessed as spontaneous locomotor activity by measuring immobility behaviour at 50 mg/kg, ip and measured for 2 hrs by LABORAS automated behavioral analysis; assay type: organism-based; conditions: in vivo
[28] = CNS toxicity in naive ICR mouse assessed as spontaneous locomotor activity by measuring climbing behaviour at 50 mg/kg, ip and measured for 30 mins by LABORAS automated behavioral analysis; assay type: organism-based; conditions: in vivo, 0.5 h
[29] = CNS toxicity in naive ICR mouse assessed as spontaneous locomotor activity at 50 mg/kg, ip and measured for 2 hrs by LABORAS automated behavioral analysis; assay type: organism-based; conditions: in vivo
RAW264.7 [30] = assay: Anti-inflammartory activity against LPS-activated mouse RAW264.7 cells assessed as reduction in IL-6 levels pretreated with compound for 1 hr followed by incubation with LPS for 12 hrs by ELISA; assay type: functional, cell-based; conditions: dose 12.5-50 µM, time 13.0 hrs, DDE = dose-dependent effect
Mus musculus [31] = assay: Anti-inflammatory activity against LPS-induced inflammatory pain-like behaviour ICR mouse model assessed as reduction in TNF-alpha levels in plasma at 50 mg/kg, ip treated with LPS for 2 hrs followed by drug administration for 1 hr by ELISA; assay type: functional, organism-based
[32] = CNS toxicity in naive ICR mouse assessed as spontaneous locomotor activity by measuring distance travelled in arena at 50 mg/kg, ip and measured for 2 hrs by LABORAS automated behavioral analysis; assay type: organism-based; conditions: in vivo
Mus musculus [33] = assay: Anti-inflammatory activity against LPS-induced inflammatory pain-like behaviour ICR mouse model assessed as reduction in IL-6 levels in plasma at 10 mg/kg, ip treated with LPS for 2 hrs followed by drug administration for 1 hr by ELISA; assay type: functional, organism-based
Mus musculus [34] = assay: as §1, with “increased mobile behaviours” for “increase in distance travelled in LABORAS arena”, “10” for “50”; assay type: functional, organism-based; conditions: time 65.0 min
Mus musculus [35] = assay: as §1, with “animal's movement speed” for “distance travelled”, “10” for “50”; assay type: functional, organism-based; conditions: time 65.0 min
Mus musculus [36] = assay: as §1, with “10” for “50”; assay type: functional, organism-based; conditions: time 65.0 min
Mus musculus [37] = assay: as §1, with “decrease” for “increase”, “immobility behaviour” for “distance travelled in LABORAS arena”, “10” for “50”; assay type: functional, organism-based; conditions: time 65.0 min
Mus musculus [38] = assay: Analgesic activity against formalin-induced inflammatory pain-like behaviour ICR mouse model assessed as inhibition of hind paw licking behaviour at 10 mg/kg, ip administered 60 mins prior to formalin challenge and measured after 10 to 40 mins by formalin test; assay type: functional; conditions: time 70-100 min
Mus musculus [39] = assay: Anti-inflammatory activity against LPS-induced inflammatory pain-like behaviour ICR mouse model assessed as reduction in TNF-alpha levels in plasma at 10 mg/kg, ip treated with LPS for 2 hrs followed by drug administration for 1 hr by ELISA; assay type: functional, organism-based
RAW264.7 [40] = assay: Anti-inflammartory activity against LPS-activated mouse RAW264.7 cells assessed as reduction in TNF-alpha levels at 50 uM pretreated with compound for 1 hr followed by incubation with LPS for 12 hrs by ELISA; assay type: functional, cell-based; conditions: time 13.0 hrs
RAW264.7 [41] = assay: Anti-inflammartory activity in mouse RAW264.7 cells assessed as inhibition of LPS-induced NO production at 50 uM pretreated with compound for 1 hr followed by incubation with LPS for 12 hrs by Griess reagent based analysis; assay type: functional, cell-based; conditions: time 13.0 hrs
RAW264.7 [42] = assay: Anti-inflammartory activity against LPS-activated mouse RAW264.7 cells assessed as reduction in IL-6 levels at 50 uM pretreated with compound for 1 hr followed by incubation with LPS for 12 hrs by ELISA; assay type: functional, cell-based; conditions: time 13.0 hrs

COc1cc(O)cc(CCc2cccc(O)c2)c1 [BATATASIN III]
Activity [1]: Non-Toxic | Activity [2]: Non-Toxic | Activity (RAW264.7 [3]): Dde | Activity (Mus musculus [4]): Active | Activity [5]: Non-Toxic | Activity (BV-2 [6]): Dde | Activity (RAW264.7 [7]): Toxic | Activity [8]: Non-Toxic | Activity (BV-2 [9]): Dde | Activity [10]: Non-Toxic | Activity (Mus musculus [11]): Active | Activity [12]: Non-Toxic | Activity (Mus musculus [13]): Active | Activity (RAW264.7 [14]): Dde | Activity (BV-2 [15]): Dde | Activity [16]: Non-Toxic | Activity [17]: Non-Toxic | Activity (Mus musculus [18]): Dde | Activity (Mus musculus [19]): Active | Activity [20]: Non-Toxic | Activity (BV-2 [21]): Toxic | Activity (Mus musculus [22]): Active | Activity [23]: Non-Toxic | Activity [24]: Non-Toxic | inhibition in vivo at 50 mg/kg (Mus musculus [25]): 69.9% | Activity [26]: Non-Toxic | Activity [27]: Non-Toxic | Activity [28]: Non-Toxic | Activity [29]: Non-Toxic | Activity (RAW264.7 [30]): Dde | Activity (Mus musculus [31]): Active | Activity [32]: Non-Toxic

COc1ccc2c(c1)c(CC(=O)O)c(C)n2C(=O)c1ccc(Cl)cc1 [INDOMETHACIN]
Activity (Mus musculus [33]): Active | Activity (Mus musculus [34]): Active | Activity (Mus musculus [35]): Active | Activity (Mus musculus [36]): Active | Activity (Mus musculus [37]): Active | inhibition in vivo at 10 mg/kg (Mus musculus [38]): 71.6% | Activity (Mus musculus [39]): Active

C[C@@H]1C[C@H]2[C@@H]3CCC4=CC(=O)C=C[C@]4(C)[C@@]3(F)[C@@H](O)C[C@]2(C)[C@@]1(O)C(=O)CO
Activity (RAW264.7 [40]): Active | Activity (RAW264.7 [41]): Active | Activity (RAW264.7 [42]): Active
